Reference: publication PMC9174938, “1,4-Dihydropyridine as a Promising Scaffold for Novel Antimicrobials Against Helicobacter pylori” (Frontiers in Microbiology, 2022)

Target: T1, HsrA (HP1043) (Helicobacter pylori, UniProt O25684)
T1 construct: gene HP_1043
T1 sequence (O25684 1-223): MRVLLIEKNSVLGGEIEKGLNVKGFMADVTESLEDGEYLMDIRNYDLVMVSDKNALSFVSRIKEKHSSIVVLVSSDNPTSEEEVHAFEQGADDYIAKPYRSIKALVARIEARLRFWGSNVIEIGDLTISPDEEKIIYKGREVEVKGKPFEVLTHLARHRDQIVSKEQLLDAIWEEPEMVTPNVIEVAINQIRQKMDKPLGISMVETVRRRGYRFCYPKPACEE
Assay: isothermal titration calorimetry
Format: binding
Settings: read-out: ITC^1 / Kd
Source text: isothermal titration calorimetry on HsrA (HP1043)

For CC1=C(C(=O)OCC(C)C)C(c2cccc([N+](=O)[O-])c2)C2=C(CC(C)(C)CC2=O)N1 (stereo not drawn) [MD2], which Kd is on record?
Its Kd is 16 µM.

For CC1=C(C(=O)OCc2ccccc2)C(c2cc(Br)cc([N+](=O)[O-])c2O)C2=C(CCC(C)(C)C2=O)N1 (stereo not drawn) [HM6], which Kd is on record?
The Kd was 5.4 µM.

For CC1=C(C(=O)OCC(C)C)C(c2cc(Br)ccc2O)C2=C(CC(C)(C)CC2=O)N1 (stereo not drawn) [MD6], which Kd is on record?
Its Kd is 25 µM.

For CC1=C(C(=O)OCC(C)C)C(c2cc([N+](=O)[O-])ccc2O)C2=C(CC(C)(C)CC2=O)N1 (stereo not drawn) [MD1], which Kd is on record?
Its Kd is 3.5 µM.

With CC1=C(C(=O)OCc2ccccc2)C(c2cc(Br)cc(Br)c2O)C2=C(CCC(C)(C)C2=O)N1 (stereo not drawn) [HM4] as the compound, how does the Kd read?
The Kd was 4 µM.

With CC1=C(C(=O)OCC(C)C)C(c2cc(Br)cc([N+](=O)[O-])c2O)C2=C(CC(C)(C)CC2=O)N1 (stereo not drawn) [MD7] as the compound, how does the Kd read?
The Kd was 23 µM.
